Source: ChEMBL document CHEMBL3351321, “Target evaluation of deoxyhypusine synthase from Theileria parva the neglected animal parasite and its relationship to Plasmodium” (Bioorg Med Chem, 2014)

Tests used:
[1] = tested on: Theileria parva; test: Inhibition of Theileria parva deoxyhypusine synthase expressed in Escherichia coli Rosetta cells assessed as reduction in deoxyhypusine level at 2 uM
[2] = tested on: Plasmodium falciparum; test: Antiplasmodial activity against Plasmodium falciparum 3D7 assessed as inhibition of parasite growth at 5 uM; assay type: functional

Row | SMILES | inhibition [1] | inhibition at 5 µM [2]
1 | CNCCCNc1ccnc2cc(Cl)ccc12 | 13% | 98%
2 | Fc1ccc2[nH]c3c(NCCCN4CCOCC4)ncnc3c2c1 | 23% | 98%
3 | O=[N+]([O-])c1ccc(C=NNc2nc3ccccc3[nH]2)cc1 | 56% | 99%
